Experimental data: article PMC3263612, “Development of an Oral Form of Azacytidine: 2′3′5′Triacetyl-5-Azacytidine” (Chemotherapy Research and Practice, 2011)
≈ marks a conversion by molar mass, not a printed value.

Columns and labels:
[1] = LogP determination, shake-flask water/octanol; type: physicochemical; details: un-ionized, read-out: experimental LogP
Description: The OSIRIS Property Explorer software was used to generate initial cLogP values. […] The pH of the water was 2 units above the pKa of the compound, preventing ionization. The experiment was conducted using the shake-flask method, after allowing octanol and water to equilibrate for 24 hours at 25°C. The initial drug concentration in water was 0.2 mM. Tubes were rotated at a 45 degree angle for 10 minutes with a 3 second rotation. The test was performed in a constant environment of 20°C–25°C. Tubes were centrifuged at 1000 g for 10 minutes, and the octanol phase was extracted. The UV/Visible absorption spectrum was evaluated from 550 nm to 210 nm to determine the absorption maximum. The analyte concentration was determined and the LogP calculated: Log = log(concentration in octanol/concentration in water).

L1210 cells = test system: L1210 cells; set-up: method as in PMID 6083417; details: published value, confirmed by MTS assay; cited from earlier work
[2] = oral film-coated formulation, 80 mg dose, cited from earlier work
[3] = Drug stability at pH 1, 3, 5 and 7.4 (LC/MS/MS); type: physicochemical; details: throughout the pH range, maximum stability at pH 1; data not shown
Description: ACT and TAC stabilities were determined after incubation at pH1 (2% Phosphoric acid), pH3 (0.1% Formic Acid), pH5 (K3PO4), and pH7.4 (Dulbecco's PBS). 100 ng of each compound was resuspended in 1.2 mL total volume, and 200 μL samples taken at 1, 3, 6, 29, and 48 hr. Each pH point was repeated 6 times in 2 dram vials with Teflon-lined screw caps at room temperature. Samples were extracted by solid-phase extraction using 100 ng decitabine as an internal standard and analyzed by tandem mass spectroscopy as described above.

P15 promoter methylation = experiment: p15INK4B methylation status (EpiTect Methyl qPCR) in L1210 cells; type: cell-based, Mouse; details: 48 hours
Description: Mouse leukemia cells (L1210) were purchased from ATCC. The published IC50 value for ACT (0.2 uM) was first confirmed using the Promega CellTiter MTS assay. […] Genomic DNA was isolated after 48 hours using the Sigma GenElute Genomic DNA Kit, including the RNase treatment step to ensure no RNA carryover. The methylation status of p15INK4B was determined using a predesigned primer set and the EpiTect Methyl qPCR Assays MethylScreen technology (Qiagen, Frederick, Md, USA).

global DNA methylation = experiment: Global methylation detection assay in mouse tissues; type: in vivo, C57BL6 mice; set-up: unit not given here; details: 5 days ACT 25 mg/kg or TAC 38 mg/kg p.o., dot blot
Description: 24 hours following drug administration, snap-frozen mouse tissues were homogenized and genomic DNA isolated using Promega's Wizard Genomic DNA Purification Kit. 100 ng of EcoRI linearized genomic DNA was spotted onto PVDF membrane. The membrane was air-dried and repermeabilized according to manufacturer's instructions. Nonspecific binding was blocked using 5% milk in PBS-T and washed twice in PBS-T for 5 minutes. The membrane was incubated with primary antibody (1 : 1000 anti-5-methylcytosine in PBS-T, Calbiochem) for 1 hour then washed four times for five minutes each with PBS-T. The membrane was incubated with the HRP-conjugated secondary antibody for 1 hour and washed four times for five minutes each with PBS-T. Signal intensity following ECL detection was quantitated using KODAK Image Station software. Assay results were confirmed using EpiGentek's Methylamp Global DNA Methylation Quantification Kit per manufacturer's instructions.
In an in vivo experiment designed to evaluate the effect of a prolonged administration of TAC on global methylation, TAC (38 mg/kg p.o.) or ACT (25 mg/kg i.p.) diluted in PBS was administered to C57BL6 mice every 24 hours for 5 consecutive days (four animals per group). […] The positive results in gut and spleen were confirmed using the EpiGentek's Methylamp Global DNA Methylation Quantification Kit.

Solubility at various pH = type: physicochemical
Description: The solubility of TAC in comparison to ACT was evaluated at various pH. TAC and ACT were equally soluble at pH1 (40 mg/mL) and pH3 (25 mg/mL), while TAC was more soluble than ACT at pH5 (30 mg/mL versus 15 mg/mL) and pH7 (30 mg/mL versus 10 mg/mL). […] At pH 1, we observed a moderate hydrolysis of TAC (26%) to the mono- and diesters in the first 3 hours of incubation increasing to 60% after 6 hrs. However, after 24, 99% of TAC was hydrolyzed, including 46% to the parent compound, ACT.

[4] = Pharmacokinetics and metabolism of TAC in mice; type: in vivo, C57/BL6 mice; details: ACT 25 mg/kg i.v., analyte ACT
Description: To monitor the in vivo absorption, distribution, and metabolism of TAC, a highly sensitive LC/MS/MS analytical method was developed that allows the quantitation of concentrations as low as 10 ng/mL of TAC and its metabolites. The samples were prepared by adding 200 μL of plasma to 400 μL of cold acetonitrile, vortexed, and centrifuged at 14,000 rpm for 10 minutes. The supernatant was placed into a 10 × 75 mm glass test tube and evaporated to 50 μL under nitrogen at 37°C. The residue was then diluted with 1 mL of 2% phosphoric acid and vortexed for 10 seconds at 3,000 rpm.
Solid phase extraction was conducted using a Varian Bond Elute PLEXA PCX 1 mL columns placed on a vacuum manifold. Columns were activated by adding 1 mL of MeOH followed by 1 mL H2O and 1 mL of 2% phosphoric acid. All samples were allowed to drip by gravity flow. The extraction columns were then washed sequentially with 1 mL 2% phosphoric acid, 1 mL H2O, and 1 mL MeOH/AcCN (1/1) and eluted into a 10 × 75 mm glass test tube containing 50 μL of 25% formic acid in MeOH with 2 × 600 μL of 2% NH4OH in MeOH/AcCN (1/1). The liquid was then evaporated to dryness with nitrogen at 37°C, and 100 μL of mobile phase A was added and vortexed for 10 seconds at 3,000 rpm and transferred to LC autosampler vials at 4°C.
HPLC separation was conducted on a reverse phase C18 column (Varian Pursuit C18, 3 micron particle size; 100 mm × 2.0 mm) using a Shimadzu SIL-HTc controller with dual LC-20AD pumps and DGU-20A3 degasser. The separation was achieved using a gradient of Mobile Phase A: 0.1% Formic Acid and Mobile Phase B: 0.1% Formic Acid, 90% MeOH with a flow rate of 400 μL/min at 40°C over 10 minutes. MS/MS fragmentation was performed on an Applied Biosystems API 3200 instrument with a Turbo V Ion Spray ion source and Positive ion polarity.
To evaluate the in vivo pharmacokinetic properties of TAC, C57/BL6 female mice of 20 g body weight were dosed with 38 mg/kg TAC p.o. (equimolar dose to 25 mg/kg of ACT) or 25 mg/kg ACT i.v. via tail vein injection. TAC and ACT were solubilized in 1X PBS immediately before administration and dosed at 0.01 mL/g fasted body weight. Blood samples (two time points per animal, three animals per time point) were obtained via retro-orbital bleeding with Natelson pipettes at 0.5, 1, 2, 4, 8, and 24 hours after drug administration. The collected blood was then centrifuged for 4 minutes at 13,000 g. Plasma was immediately extracted with cold acetonitrile and stored at −80°C until LC/MS/MS analysis.
Noncompartmental plasma pharmacokinetic parameters for TAC prodrug and ACT after oral TAC or i.v ACT administrations were estimated using the sparse sampling option in WinNonlin Software version 4.1 (Pharsight Corp., Mountain View, Calif, USA). Briefly, the WinNonlin sparse sampling option applies the linear trapezoidal rule for area under the concentration-time curve (AUC) calculations and generates a standard error for the mean AUC estimate that accounts for correlations in the data resulting from repeated sampling of individual mice. Parameters of interest included the AUC from time 0 to the last measurable concentration (AUClast), observed peak concentration after oral administration (Cmax), estimated peak concentration after i.v. administration (C0), mean residence time to the last measurable concentration (MRTlast), and the half-life of the terminal phase (T1/2). To assess the multiphasic decline in plasma concentrations, an alpha (T1/2α) half-life was also estimated using a log-linear regression of the mean ACT concentrations through 2 hours after dosing.

[5] = test system: L1210 lymphocytic leukemia; experiment: In vivo L1210 lymphocytic leukemia model; set-up: species or system BDF1 mice
Description: The in vivo L1210 lymphocytic leukemia model in C57BL/6 × DBA/2 F1(BDF1) female mice was used to evaluate the in vivo antiproliferative effect of TAC. L1210 cells were carried in BDF1 mice by weekly i.p. (intraperitoneal) passages. Leukemia cells from ascites fluid were diluted appropriately in […] medium and injected i.p. (1×10^5 cells/0.1 mL/mouse) into recipient mice. A daily oral administration of TAC (38 mg/kg via oral gavage) or ACT (25 mg/kg administered i.p.) diluted in PBS was given to leukemic BDF1 mice starting 24 hours from the inoculation of L1210 cells for a total of 5 days. Compounds were prepared fresh daily. A group of untreated leukemic mice received sterile water for injections and served as controls.

[6] = tissue 24 hours after treatment
[7] = female, C57/BL6, mouse, plasma, iv

SMILES: Nc1ncn([C@@H]2O[C@H](CO)[C@@H](O)[C@H]2O)c(=O)n1 [ACT, 5-azacitidine]
- logP [1]: -2.32
- IC50 (L1210 cells): 0.2 µM
- bioavailability ([2]; four human subjects): 17.4%
- mean plasma half-life ([2]; human): 0.39 h
- stability of azacitidine in solution [3]: significant degradation
- decrease of P15 promoter methylation (P15 promoter methylation; 0.1 uM ACT): 39% (±3)
- decrease of P15 promoter methylation (P15 promoter methylation; 10 uM ACT): 49% (±17)
- densitometry of methylation level, Gut Average (global DNA methylation; four animals): 29
- densitometry of methylation level, Spleen Average (global DNA methylation; four animals): 50
- densitometry of methylation level, Gut.1 (global DNA methylation; [6]): 37
- densitometry of methylation level, Gut.2 (global DNA methylation; [6]): 14
- densitometry of methylation level, Gut.3 (global DNA methylation; [6]): 34
- densitometry of methylation level, Gut.4 (global DNA methylation; [6]): 33
- densitometry of methylation level, Spleen.1 (global DNA methylation; [6]): 54
- densitometry of methylation level, Spleen.2 (global DNA methylation; [6]): 71
- densitometry of methylation level, Spleen.3 (global DNA methylation; [6]): 48
- densitometry of methylation level, Spleen.4 (global DNA methylation; [6]): 29
- solubility (Solubility at various pH; pH 1, pH1): 40 mg/mL (≈ 164 mM)
- solubility (Solubility at various pH; pH 3, pH3): 25 mg/mL (≈ 102 mM)
- solubility (Solubility at various pH; pH 5, pH5): 15 mg/mL (≈ 61.4 mM)
- solubility (Solubility at various pH; pH 7, pH7): 10 mg/mL (≈ 40.9 mM)
- T1/2α ([4]; data through 2 hours): 0.32 h
- Cmax [4, 7]: 81.1 µM
- MRT last [4, 7]: 1.1 h
- C0 ([4]; female, C57/BL6, mouse, plasma, iv, estimated peak concentration): 212 µM
- half-life ([4]; female, C57/BL6, mouse, plasma, iv, terminal phase): 6.8 h
- AUC(0-t) ([4]; female, C57/BL6, mouse, plasma, iv, mean (standard error)): 126 µM·h
- survival ([5]; azacitidine 25 mg/kg i.p. (maximum tolerated dose) daily for 5 days): 17 days
- increased lifespan ([5]; azacitidine 25 mg/kg i.p. daily for 5 days): 112%
- weight reduction ([5]; azacitidine 25 mg/kg i.p., L1210-bearing mice): 16%
